Assay [1] concerns SK-MEL-30 melanoma cells (N-RAS Q61K mutant). The assay can be described thus: Inhibition of cell growth of N-RAS Q61K mutant SK-MEL-30 cells (SRB). The conditions noted are these: Homo sapiens, 72 hours incubation, SRB staining. It is filed as cell-based. As to the method: N-RAS^Q61K mutant SK-MEL-30 melanoma cell line (ACC-151) was obtained from DSMZ (Deutsche Sammlung von Mikroorganismen und Zellkulturen GmbH, Germany). SK-MEL30 cells express wildtype B-RAF and mutant N-RAS (Q61K). SK-MEL-30 cells were incubated in a RPMI medium supplemented with 10% FBS and 1% penicillin/streptomycin (Gibco BRL) under 37° C., 5% CO2 and 95% air. Cells were seeded in 96-well plates at a density of 5,000 cells/well, and cultured for 18 hours or more. Then cells were treated with 0.1-10 μM (1/10 serial dilution) of test compounds, and incubated for 72 hours.
To evaluate cell viabilities, SK-MEL-30 cell lines were fixed with 10% TCA (trichloroacetic acid), stained with SRB (sulforhodamine B), and the absorbance was measured at 540 nm. Then, GI50, i.e., the concentration of drug to cause 50% reduction in proliferation of cancer cells, was calculated therefrom. The growth rates of cancer cells were calculated by Equation 1 or 2. [(Ti−Tz)/(C−Tz)]×100 (for […]) Equation 1 [(Ti−Tz)/Tz]×100 (for Ti<Tz) Equation 2
In Equation 1 and 2, ‘Tz’ refers to the density of untreated cells, which is the absorbance in 0% cell growth groups. ‘C’ refers to the density of cells cultured by adding only medium, and ‘Ti’ refers to the density of cells treated with test compounds. […]

The target of another assay is B-RAF wild type (Homo sapiens (Human), UniProt P15056). As to the kind of experiment: RAF kinase inhibitory activity, Kinase Profiling Service. It is filed as biochemical. To be noted: read-out: B-RAF WT (IC50). As to the method:
(§1) The levels of enzymatic inhibition of the compound were calculated as percent inhibition at various concentrations. Based on percent inhibition, dose-response curves were plotted using GraphPad Prism software.

For another assay, the target named is B-RAF V600E (Homo sapiens (Human), UniProt P15056, V600E). Described as above. It is filed as biochemical. The procedure:
as §1

The next assay has as its target RAF1 (C-RAF) Y340D/Y341D (Homo sapiens (Human), UniProt P04049, Y340D/Y341D). The assay is described as above. It is filed as biochemical. The procedure:
as §1

Where a name gives a salt, the structure may show the parent alone. A value given as a limit tells only on which side of the number the result lay.

The record followed here is US11492357B2, “Thieno[3,2-d]pyrimidine derivative compound having inhibitory activity for protein kinase” (Hanmi Pharm. Co., Ltd., priority 2017, dated 2022).

One may read the GI50 as the concentration that inhibits growth by half. By IC50 is commonly meant the concentration at which inhibition is half-maximal.

Chain of B-RAF wild type (P15056 whole entry): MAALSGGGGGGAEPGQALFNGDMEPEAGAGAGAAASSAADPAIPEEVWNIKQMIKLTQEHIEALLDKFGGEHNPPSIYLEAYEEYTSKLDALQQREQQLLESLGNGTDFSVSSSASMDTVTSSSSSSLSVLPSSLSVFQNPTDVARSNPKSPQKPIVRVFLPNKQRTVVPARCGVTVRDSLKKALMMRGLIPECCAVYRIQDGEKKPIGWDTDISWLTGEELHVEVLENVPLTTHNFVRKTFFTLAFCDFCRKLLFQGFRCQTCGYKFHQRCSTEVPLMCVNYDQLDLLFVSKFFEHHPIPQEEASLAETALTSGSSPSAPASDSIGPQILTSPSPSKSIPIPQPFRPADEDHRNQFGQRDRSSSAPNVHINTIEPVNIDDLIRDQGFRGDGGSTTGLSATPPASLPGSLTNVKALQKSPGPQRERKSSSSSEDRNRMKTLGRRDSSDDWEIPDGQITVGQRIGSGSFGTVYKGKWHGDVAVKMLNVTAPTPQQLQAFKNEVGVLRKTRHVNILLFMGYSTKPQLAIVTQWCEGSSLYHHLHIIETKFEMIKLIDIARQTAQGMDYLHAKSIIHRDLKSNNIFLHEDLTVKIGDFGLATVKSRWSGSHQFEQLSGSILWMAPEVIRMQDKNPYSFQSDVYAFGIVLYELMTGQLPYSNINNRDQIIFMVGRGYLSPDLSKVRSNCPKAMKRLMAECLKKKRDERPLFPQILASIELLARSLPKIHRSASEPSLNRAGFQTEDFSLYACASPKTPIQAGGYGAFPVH
Chain of RAF1 (C-RAF) Y340D/Y341D (P04049 whole entry Y340D/Y341D): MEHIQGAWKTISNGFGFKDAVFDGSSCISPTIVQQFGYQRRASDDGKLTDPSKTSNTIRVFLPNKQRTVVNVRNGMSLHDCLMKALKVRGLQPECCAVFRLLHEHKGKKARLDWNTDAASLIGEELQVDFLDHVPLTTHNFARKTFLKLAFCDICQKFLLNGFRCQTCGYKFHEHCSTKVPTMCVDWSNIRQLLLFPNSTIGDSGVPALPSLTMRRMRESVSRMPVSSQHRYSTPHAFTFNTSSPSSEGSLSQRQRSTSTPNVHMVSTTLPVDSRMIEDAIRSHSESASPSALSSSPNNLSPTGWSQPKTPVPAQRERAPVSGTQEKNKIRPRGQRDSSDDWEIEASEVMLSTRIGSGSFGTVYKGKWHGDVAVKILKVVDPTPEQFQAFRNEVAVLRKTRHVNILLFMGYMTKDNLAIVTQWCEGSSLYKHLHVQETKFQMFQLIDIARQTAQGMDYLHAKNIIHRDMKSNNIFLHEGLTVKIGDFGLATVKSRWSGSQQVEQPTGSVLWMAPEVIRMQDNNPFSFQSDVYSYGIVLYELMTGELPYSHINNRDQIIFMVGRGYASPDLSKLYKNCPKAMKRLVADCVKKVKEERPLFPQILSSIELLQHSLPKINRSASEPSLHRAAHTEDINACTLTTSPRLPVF
Chain of B-RAF V600E (P15056 whole entry V600E): as the sequence (P15056 whole entry) above, with V600E counted along it

On to `CCCS(=O)(=O)Nc1ccc(F)c(C(=O)c2c[nH]c3ncc(-c4ccc(Cl)cc4)cc23)c1F` [Control, vemurafenib, reference compound], for which the 50% growth inhibitory concentration (GI50) in assay [1] was above 10000 nM.

`Cc1ccc2c(Nc3ccc(O)c(Cl)c3F)nccc2c1NC(=O)c1csc2c(N)ncnc12` [Compound•2HCl, 4-amino-N-(1-((3-chloro-2-fluoro-4-hydroxyphenyl)amino)-6-methylisoquinolin-5-yl)thieno[3,2-d]pyrimidine-7-carboxamide dihydrochloride]: the concentration for half-maximal inhibition (IC50) was determined as 392 nM at B-RAF wild type, 30 nM against B-RAF V600E and 21 nM on RAF1 (C-RAF) Y340D/Y341D. Besides, halving of growth in assay [1] (GI50) required 231 nM.
